These results are taken from patent US11738099B2, “Molecular probes and methods of use” (CASE WESTERN RESERVE UNIVERSITY, priority 2014, dated 2023).

The nature of series [1]: Relaxivity at 1.5T in water, 37° C. Conditions: listed as Gd(HP-DO3A). The series is classed as physicochemical. As for the experimental part: Relaxivity is an important parameter for an MR contrast agent. It reflects how the relaxation rate of the surrounding water proton changes as a function of concentration, and it is directly associated with the agent's contrast enhancing capability during imaging. The relaxivity of the 4 contrast agents was tested at 37° C. in water and compared to Gd(HP-DO3A), Gd-DOTA and ZD2-Gd(HP-DO3A) (FIG. 26). […] Compared to Gd(HP-DO3A), Gd-DOTA, the size increase of the targeted contrast agents due to the peptides and PEG spacer could result in an increase of τR,^[42, 43] thus leading to higher relaxivities.

In series [2] the test system is PC-3 human prostate cancer xenograft. Nature of the series: MRI of PC-3 xenograft (Example 2). The series is classed as in vivo, mouse. Conditions: 0.1 mmol-Gd/kg intravenous. From the text:
The same contrast agent also works for prostate cancer imaging. We then tested the effectiveness of targeting EDB-FN with the contrast agent for prostate cancer MRI in male nude mice bearing primary PC-3 human prostate cancer xenograft.

Series [3] is described as follows: r1 relaxivity by T1 mapping in PC3 tumor lysates. The series is classed as physicochemical.
Another series has as its system PC3 tumors. In words: In vivo MRI at 1.0 Tesla, PC3 tumor-bearing mice (Example 5). Set-up: species or system mouse. As to the method: All MRI experiments were performed on an Aspect M3 compact MRI scanner (1.0 Telsa, Aspect Imaging. Israel). Imaging experiments were performed when the tumor size reached 5-8 mm in diameter. Each contrast agent was administered intravenously at a dose of 0.1 mmol/kg Gd^3+ after acquiring pre-contrast images. ProHance® (gadoteridol) was used as a control in the imaging experiments. Post-contrast images were obtained at 10 min intervals up to 30 min. Axial slices of the mouse at the tumor location were acquired using a T1-weighted spin echo sequence with the following parameters: TR=500 ms, TE=8.144 ms, slice thickness=1 mm, inter-slice gap=0.1 mm, field of view (FOV)=3 cm×3 cm. The total imaging time is 216 seconds. Contrast-to-noise ratio (CNR) at each time point was calculated by measuring the ratios of signal intensities in manually drawn regions of interest (ROIs) in tumor and muscle, and then normalizing to image noise. A 3D FLASH gradient echo sequence was used for whole-body coronal imaging. Imaging parameters were TR=17.362 ms, TE=6 ms, flip angle=15°, slice thickness=1.5 mm, FOV=[…]. The total imaging time is 226 seconds. Each of the 16 slices was acquired immediately after the acquisitions with the T1-weighted spin echo sequence.

Series [4] concerns LNCaP prostate tumor xenografts. In words: T1-weighted MRI at 1 Tesla, LNCaP tumors (Example 3). The series is classed as in vivo, mouse. The conditions noted are these: 0.1 mmol/kg i.v., up to 30 min. As for the experimental part:
(§1) Male athymic nude mice were purchased from Case Comprehensive Cancer Center (Cleveland, Ohio, USA) and housed in the Animal Core Facility at Case Western Reserve University. All animal experiments were performed in accordance with the animal protocol approved by the CWRU Institutional Animal Care and Use Committee. Athymic nude male mice were subcutaneously injected with 100 μL cell suspension (4×10^7 cells/mL) in matrigel matrix (Corning Bioscience, Corning, N.Y.) to initiate tumors. Mice with tumors of 5-8 mm in diameter were used for imaging studies.
MR images of tumor bearing mice were acquired on an Aspect M3 small animal MRI scanner (1 Tesla). Mice were placed on a holder with the temperature maintained at 37° C., with isoflurane/oxygen mixture supplied to the mice through a nose cone. A thin catheter filled with PBS was connected to a tail vein of the mice. After mice were placed in the coil, a pilot scan was performed to adjust mice to the proper location in the coil. […] Images were exported into DICOM data, which were then processed and analyzed using Matlab (Natick, Mass., USA). The contrast to-noise ratio of tumors in the images were calculated as the difference between tumor mean intensity minus muscle mean intensity, divided by the noise.

The test system is the same in series [5]. In words: In vivo T1-weighted MRI at 7T, LNCaP tumors. Details: species or system mouse. As for the experimental part:
(§2) All MRI experiments were performed on a horizontal 7T Bruker scanner (Bruker Biospin Co., Billerica, Mass.). Imaging experiments were performed when the tumor size reached 5-8 mm in diameter. ZD2-Gd(HP-DO3A) was administered intravenously at the dose of 0.1 mmol/kg after acquiring pre-contrast images. Post-contrast images were obtained at 10 min interval up to 30 min. The axial slices of mouse at the tumor location were acquired using T1-weighted spin echo sequence with the following parameters: field of view (FOV): 3 cm; slice thickness: 1.2 mm; interslice distance: 1.2 mm; TR: 500 ms, TE: 8.1 ms; flip angle: 90°; average: 2; matrix size: 128×128. Contrast-to-noise ratio (CNR) at each time point was calculated by subtraction of the average signal intensity in the tumor and muscle, divided by the standard deviation of image noise. ProHance® (gadoteridol) was used as a control in the imaging experiments.

The subject of series [6] is PC3 prostate tumor xenografts. In words: In vivo T1-weighted MRI at 7T, PC3 tumors. Details: species or system mouse. As for the experimental part: as §2
For series [7], the system named is PC3 prostate tumor xenografts. In words: T1-weighted MRI at 1 Tesla, PC3 tumors (Example 3). The series is classed as in vivo, mouse. The conditions noted are these: 0.1 mmol/kg i.v., up to 30 min, 1 Tesla. As for the experimental part: as §1
MR images of tumor bearing mice were acquired on an Aspect M3 small animal MRI scanner (1 Tesla). Mice were placed on a holder with the temperature maintained at 37° C., with isoflurane/oxygen mixture supplied to the mice through a nose cone. A thin catheter filled with PBS was connected to a tail vein of the mice. After mice were placed in the coil, a pilot scan was performed to adjust mice to the proper location in the coil. An axial T1 weighted sequence (TR=500 ms; TE=9 ms; Flip angle=90°; Field of view=3 cm×3 cm; Matrix size=128×128×8; slice thickness=2 mm; interslice distance=1 mm) was then used to acquire the images of the tumors before and 10 min, 20 min and 30 min after contrast injection. Images were exported into DICOM data, which were then processed and analyzed using Matlab (Natick, Mass., USA). The contrast to-noise ratio of tumors in the images were calculated as the difference between tumor mean intensity minus muscle mean intensity, divided by the noise.

In a further series the target is EDB fragment (Homo sapiens, UniProt P02751). In words: Peptide ELISA of HRP-conjugated peptides on coated EDB. The series is classed as binding. The conditions noted are these: HRP conjugates. As for the experimental part: A linear version of ZD2 (CTVRTSADA) SEQ ID NO: 42 was synthesized so that sulfhydryl group on cysteine could be used for conjugation with maleimide-activated […] (Sigma-Aldrich). Conjugation was carried out as instructed in the manual. The product of conjugation, ZD2-HRP, was used for peptide ELISA assay after coating a 96-well plate with purified EDB. 0.5% BSA in PBS was used to block non-specific binding for later steps. 0.39 μM to 50 μM of ZD2-HRP was incubated with coated EDB for an hour followed by extensive washing with TBST (0.1%). ABTS substrate was added subsequently and allowed to react for 30 min before the absorbance of solution in each well were measured at 415 nm. Non-coated wells added with ABTS were used as blank.
Sequence of EDB fragment (P02751 1271-1359 limits assumed): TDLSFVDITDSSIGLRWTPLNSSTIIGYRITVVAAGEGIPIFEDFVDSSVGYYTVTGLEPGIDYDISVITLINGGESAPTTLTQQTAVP
Cyclic ZD2 peptide (CTVRTSADC) (SEQ ID NO: 10) was synthesized using standard solid phase peptide chemistry and was characterized by MALDI-TOF mass spectrometry (FIG. 1C). The peptide was then labeled with a fluorescence chromophore cyanine 5 (Cy5) through a short PEG linker (NH2—(CH2CH2O)—CH2CH2COOH) to give a peptide fluorescence probe ZD2-Cy5. The peptide was also conjugated to peroxidase (ZD2-HRP) and the binding affinity of the peptide to EDB fragment was determined using peptide ELISA assay.
(§3) Similarly, CERAK-HRP is synthesized as a control.
For orientation: An ELISA detects its analyte on a solid surface through an enzyme-linked reagent.

A further series deals with EDA (Homo sapiens, UniProt P02751). Nature of the series: ELISA of l-ZD2-HRP on EDA. The series is classed as binding.
Sequence of EDA (P02751 1727-1814 limits assumed): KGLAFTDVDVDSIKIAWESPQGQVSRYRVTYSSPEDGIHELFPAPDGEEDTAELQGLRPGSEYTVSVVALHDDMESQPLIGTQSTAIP
Excerpt: as §3

The subject of the next series is TGFβ induced 4T1 cells. Nature of the series: Binding of Cy5 probes to TGFβ induced 4T1 cells in vitro. The series is classed as cell-based. As for the experimental part:
As tumor cells produce EDB-FN to promote its migration, we further validated if Cy5 labeled l-ZD2 (l-ZD2-Cy5) can bind to TGFβ induced 4T1 cells in vitro. […] To explain this, we hypothesize that in this form of cell culture, no clot formation can take action to provide binding sites for CREKA-Cy5. To validate our hypothesis, we further produced a 3D culture system that mimics the “soil” of metastatic tumor. In the 3D culture system, 4T1 cells were cultured in a microenvironment containing TGFβ, collagen, and fibrin. […] In overall, these evidences point to the conclusion that the use of EDB-FN for targeting micrometastasis may be advantageous compared with Fibronectin-Fibrin complexes in that EDB-FN appears earlier than Fibronectin-Fibrin in the pre-metastatic niche.

The next series has as its system 4T1 metastatic tumors. In words: Fluorescence detection of micrometastasis, breast cancer metastatic tumor model. The series is classed as in vivo, mouse. The conditions noted are these: three hours after 10 nmol injection. As for the experimental part: In order to construct a metastatic tumor model, 0.2×10^6 4T1 tumor cells undergone 5 days of TGFβ induction were injected through left ventricle of heart, resulting in the spread of tumor cells primarily in brain, lung, liver, lymph node, adrenal gland, chest, and bone marrow. Bioluminescent images of the mice at two weeks were used to monitor the growth of tumors. To assess the targeting capacity of l-ZD2-Cy5, brain and lung were harvested from the mice three hours after 10 nmol l-ZD2-Cy5 were injected. […] Normal brain and lung harvested from normal mice injected with l-ZD2-Cy5 were used as negative controls. Examination of bigger metastatic tumors in lymph nodes and adrenal gland, as shown in FIG. 8B further backed up the targeting efficiency of l-ZD2-Cy5.

Where [8] appears, read: 0.1 mmol/kg i.v., up to 30 min, 7T.

Where no end group is shown, it is not given here.

The molecule `CC(O)CN1CCN(CC(=O)[O-])CCN(CC(=O)[O-])CCN(CC(=O)[O-])CC1.[Gd+3]` (centres unmarked) [ProHance, gadoteridol, reference compound] registered a r1 in series [1] of 2.9 mM⁻¹ s⁻¹. Moreover, the tumor contrast enhancement entry in series [2] is on record as “little contrast enhancement”. The molecule also yielded a r1 relaxivity in [3] of 3.17 mM⁻¹ s⁻¹. Besides, in the series on PC3 tumors (0.1 mmol/kg i.v., at 10 minutes, remained at least 30 min), the “tumor signal enhancement, T1-weighted spin-echo” value is listed as “modest contrast enhancement”. For the same molecule, the “time of peak CNR in PC3 tumors” value in the series on PC3 tumors (Gd-DOTA conjugates and ProHance, 0.1 mmol/kg) came out at 10 min. Also, the “CNR in PC3 tumors compared to the peptide targeted contrast agents” value in the series on PC3 tumors (especially at 20 and 30 min) is “lower CNR”. For the same molecule, the “signal enhancement in LNCaP tumors” value in [4] and in [5] (setting [8]) was “modest contrast enhancement” throughout. In addition, in series [5] (10-30 min post-injection), the “CNR in LNCaP tumors” value was 7˜10. Further, the “signal enhancement in PC3 tumors” value in series [6] (setting [8]) and in series [7] was “modest contrast enhancement” in each case. In addition, in series [6] (10-30 min post-injection), the “CNR in PC3 tumors” value is recorded as 7˜11.
With “l-ZD2-HRP: NH2-TVRTSADC-COOH conjugated via cysteine thiol to maleimide activated horseradish peroxidase”, in the series with EDB fragment, the “binding to EDB protein” value is “comparable to cyclic ZD2 with a slight increase in affinity”. For the same molecule, the “binding to EDA” value with EDA is recorded as “No binding”.
Regarding “l-ZD2-Cy5: Cy5 labeled l-ZD2 (TVRTSAD; also: Cy5 labeled, site not given here)”, in the series on TGFβ induced 4T1 cells (cell culture), the “binding to induced 4T1 cells” value is recorded as “bound to induced 4T1 cells within 3 hours”. In addition, the “binding in 3D culture of 4T1 cells” value in the series on TGFβ induced 4T1 cells (microenvironment containing TGFβ, collagen, and fibrin) is listed as “accumulated in the cell periphery starting from day 1”. Moreover, in the series on 4T1 metastatic tumors, the “binding to micrometastases on brain and lung” value was “clearly outlined the micrometastases”.
